Results as given in patent US20160361314A1, “COMBINATION OF AN ALK INHIBITOR AND A CDK INHIBITOR FOR THE TREATMENT OF CELL PROLIFERATIVE DISEASES” (NOVARTIS AG, priority 2013, published 2016).
Like-named read-outs stand apart in the source and are kept apart here.

Tests used:
[1] = test system: NB1643 (R1275Q) human neuroblastoma cells; test: ApoTox-Glo Triplex assay, viability and caspase 3/7 apoptosis; assay type: cell-based; details: 72 hours, 1/4 to 4 times IC50, equipotent ratio
Protocol: The effect of treatment with the combinations of the invention on cell viability and apoptosis were evaluated in three human neuroblastoma cell lines: NB1643 (R1275Q), SH-SY5Y (F1174L) and EBC1 (WT) using the ApoTox-Glo Triplex assay. For confirmation, the treatment effect on cell viability was also evaluated in NB1643 (R1275Q) using the CellTitre-Glo (CTG) Luminescent Cell Viability assay. The assays were described, infra.
The test mixtures were evaluated by 72 hours after dosing, and the results were plotted in FIGS. 11A-C, 12A-C, 13A-C and 14A-C.
In vitro cell viability and Caspase-Glo 3/7 were simultaneously assayed using the ApoTox-Glo Triplex Assay (Promega, Calif.) in three neuroblastoma cell lines. […] After 72 hours of drug exposure, the fluorogenic substrate GF-AFC was added. The test mixture was incubated for 10 minutes and AFC fluorescence was measured at 380-400nm excitation and 505 nm emission.
Following measurement of live cell fluorescence, a luminogenic Caspase-Glo 3/7 substrate and luciferase was added to the same wells. Luminescence was measured after a 30 minutes incubation period. Luciferin is released following cleavage of the substrate by caspase-3/7, and thereby the luminescent signal is proportional to caspase activity.

[2] = test system: human neuroblastoma SH-SY5Y (F1174L ALK mutation) xenografts; details: CB17 SCID mice; A1 50 mg/kg, B 250 mg/kg reduced to 187.5 mg/kg on day 5; p.o. gavage
Protocol: Enhancement of efficacy studies were conducted in vivo on CB17 SCID mice against human neuroblastoma SH-SY5Y (bearing an F1174L ALK mutation) xenografts.
CB17 scid female mice (Taconic Farms) were used to propagate subcutaneously implanted neuroblastoma tumors. Tumor diameters were measured twice per week with electronic calipers, and tumor volumes were calculated with the spheroid formula, (p/6)×d3, where d represents mean diameter. […] Mice were euthanized when tumor volume exceeded 3000 mm^3 or at the study conclusion at 7 weeks. A mixed-effects linear model was used to assess tumor volume over time between treatment and vehicle groups, controlling for tumor size at enrollment. Event-free survival probabilities were estimated using the Kaplan-Meier method and survival curves were compared using the log-rank test (SAS 9.3 and Stata 12.1). An event was defined as time to tumor volume ≧3000 mm^3, and tumor volumes after week 7 were censored. Mice were maintained under protocols and conditions approved by our institutional animal care and use committee.

[3] = test system: SKBE2C neuroblastoma cells (WT); test: xCELLigence in vitro growth inhibition (IC50, Dm); assay type: cell-based; details: Homo sapiens, Neuroblastoma cell, single agent
Protocol: (§1) In vitro inhibitory activity was determined in five (5) neuroblastoma cell lines with a 96-well Real-Time Cell Electronic Sensing xCELLigence system (ACEA, San Diego, Calif.) which measures a “cell index”. Cell index is derived from alterations in electrical impedance as cells interact with the biocompatible microelectrode surface in each well to measure substrate adherent proliferation. Depending on the growth kinetics, the following cell densities were plated per well: NB1643: 20,000; SHSY5Y: 6,000; SKBE2C:10,000; NBEBC1: 11,000; NB1691: 30,000. After 24 hours, the plated cells were treated in triplicate with the test compound, each dose as indicated or with DMSO vehicle control. […] At 72 hours after drug exposure, the cell index was recorded.
(§2) The IC50 was calculated using GraphPad Prism 5.0 four parameter variable slope fitting.
(§3) Drug combination effects and quantification of synergy were determined using the Chou-Talalay combination index method (Trends Pharmacol Sci 4, 450-454) and CalcuSyn v2 software (Biosoft, MO) in four neuroblastoma cell lines. Cells were plated and in vitro proliferation was measured using the xCELLigence system as described above.
(§4) The anti-proliferation potency of each individual agent was estimated by the median-effect dose, Dm. […] Fa=0 is determined based on DMSO control by the dose, and Fa=1 is a full response (no viable cells left) and. • Fu: fraction unaffected by dose where fu=1−fa.

[4] = test system: NB1691 neuroblastoma cells (WT); test: xCELLigence in vitro growth inhibition and Chou-Talalay combination index; assay type: cell-based; details: Homo sapiens
[5] = test system: SKNAS neuroblastoma cells (WT); test: xCELLigence in vitro growth inhibition (IC50); assay type: cell-based; details: Homo sapiens, SK-N-AS, 72 hours, single agent
Protocol: as §1, §2

[6] = test system: SKNFI neuroblastoma cells (WT); test: xCELLigence in vitro growth inhibition (IC50); assay type: cell-based; details: Homo sapiens, SK-N-FI, 72 hours, single agent
Protocol: as §1, §2

[7] = test system: NB1643 neuroblastoma cells (R1275Q); test: xCELLigence in vitro growth inhibition and Chou-Talalay combination index; details: for IC50: Homo sapiens; for Dose Reduction Index (DRI, from calculations) / Drug alone dose giving Fa (calculated) / Dose Reduction Index (DRI) / Drug alone dose giving Fa: NB1643; for Dose Reduction Index (DRI, from calculations) / Drug alone dose giving Fa (calculated): Table 7; for Dose Reduction Index (DRI): A1 and B co-treatment
Protocol: (§5) The concentration dependence of the anti-proliferation effect for both combination partners, first alone and then in combination were measured using the xCELLigence system. CI for each of the treatments was computed by CalcuSyn v2 software (Biosoft, MO).
(§6) In vitro inhibitory activity was determined in five (5) neuroblastoma cell lines with a 96-well Real-Time Cell Electronic Sensing xCELLigence system (ACEA, San Diego, Calif.) which measures a “cell index”. Cell index is derived from alterations in electrical impedance as cells interact with the biocompatible microelectrode surface in each well to measure substrate adherent proliferation. […] After 24 hours, the plated cells were treated in triplicate with the test compound, each dose as indicated or with DMSO vehicle control. […] At 72 hours after drug exposure, the cell index was recorded.
(§7) The IC50 was calculated using GraphPad Prism 5.0 four parameter variable slope fitting. These values were used in dosing of the combination study which follows.
as §3, §4
(§8) The effect of combination drug effects was determined utilizing the combination index (CI) as defined by Chou according to the following equation:
(§9) where (Dx)1 and (Dx)2 are the concentrations of compounds D1 and D2 needed to produce a given level of anti-proliferative effect when used individually, whereas (D)1 and (O)2 are their concentrations that produce the same anti-proliferative effect when used in combination. The combination index is a quantitative measure of drug interaction defined as an additive effect (CI=1), antagonism (CI>1), or synergy (CI<1). Typically, a CI range, as used herein, is used to assess synergy. A combination index of 0.9-1.1 indicates additive interaction, values below 0.9 indicate synergism, and values over 1.1 indicate antagonism. The follow is a description of the CI ranges: • <0.1+++++ Very strong synergism • 0.1-0.3++++ Strong synergism • 0.3-0.7+++ Synergism • 0.7-0.85++ Moderate synergism • 0.85-0.90+ Slight synergism • 0.90-1.10± Nearly additive • 1.10-1.20− Slight antagonism • 1.20-1.45−− Moderate antagonism
(§10) The combination index was used to assess the Dose-Reduction Index (DRI) (Chou and Chou, 1988), where:
CI=(D)1/(Dx)1+(D)2/Dx)2=1/(DRI)1+1/(DRI)2
The DRI estimates how much the dose of each drug can be reduced when synergistic drugs are given in combination, while still achieving the same effect size as each drug administered individually.

[8] = test system: SHSY5Y neuroblastoma cells (F1174L); test: as above; assay type: cell-based; details: Homo sapiens, SH-SY5Y, single agent
Protocol: as §5, §6, §7, §3, §4, §8, §9, §10
CI=(D)1/(Dx)1+(D)2/Dx)2=1/(DRI)1+1/(DRI)2 […]

[9] = read-out: Dm (median-effect dose)
[10] = NB-1691, 72 hours, single agent, read-out: IC50
[11] = NB-1691, single agent, read-out: Dm (median-effect dose)
[12] = NB-1643, read-out: Dm (median-effect dose)
[13] = Fa 0.51, Table 6, from experimental values
[14] = Fa 0.75, Table 6, from experimental values
[15] = Fa 0.83, Table 6, from experimental values
[16] = Fa 0.9, first of two Fa 0.9 lines, Table 6
[17] = Fa 0.9, second of two Fa 0.9 lines, Table 6

SMILES: Cc1cc(Nc2ncc(Cl)c(Nc3ccccc3S(=O)(=O)C(C)C)n2)c(OC(C)C)cc1C1CCNCC1 [Compound A1, 5-chloro-N2-(2-isopropoxy-5-methyl-4-(piperidin-4-yl)phenyl)-N4-[2-(propane-2-sulfonyl)-phenyl]-pyrimidine-2,4-diamine]
- Cell viability (cell death) and apoptosis [1]: effective in causing cell death and apoptosis
- Survival of the mice / deaths [2]: euthanized due to the size of their tumor
- Tumor volume / tumor growth [2]: only a slight tumor growth delay compared to vehicle control
- IC50 ([3]; 72 hours, read-out: IC50): 603 nM
- IC50 [3, 9]: 350 nM
- IC50 [4, 10]: 1930 nM
- IC50 [4, 11]: 762 nM
- IC50 [5]: 2150 nM
- IC50 [6]: 3480 nM
- IC50 ([7]; NB-1643, 72 h): 222 nM
- IC50 [7, 12]: 173 nM
- Dose Reduction Index (DRI, from calculations) ([7]; Fa 0.020): 3.099
- Drug alone dose giving Fa (calculated) ([7]; Fa 0.020): 0.0007501 µM
- Dose Reduction Index (DRI, from calculations) ([7]; Fa 0.050): 3.455
- Drug alone dose giving Fa (calculated) ([7]; Fa 0.050): 0.0028193 µM
- Dose Reduction Index (DRI, from calculations) ([7]; Fa 0.100): 3.764
- Drug alone dose giving Fa (calculated) ([7]; Fa 0.100): 0.0080106 µM
- Dose Reduction Index (DRI, from calculations) ([7]; Fa 0.150): 3.969
- Drug alone dose giving Fa (calculated) ([7]; Fa 0.150): 0.015292 µM
- Dose Reduction Index (DRI, from calculations) ([7]; Fa 0.200): 4.130
- Drug alone dose giving Fa (calculated) ([7]; Fa 0.200): 0.0248814 µM
- Dose Reduction Index (DRI, from calculations) ([7]; Fa 0.250): 4.269
- Drug alone dose giving Fa (calculated) ([7]; Fa 0.250): 0.0371953 µM
- Dose Reduction Index (DRI, from calculations) ([7]; Fa 0.300): 4.394
- Drug alone dose giving Fa (calculated) ([7]; Fa 0.300): 0.0528478 µM
- Dose Reduction Index (DRI, from calculations) ([7]; Fa 0.350): 4.510
- Drug alone dose giving Fa (calculated) ([7]; Fa 0.350): 0.0727063 µM
- Dose Reduction Index (DRI, from calculations) ([7]; Fa 0.400): 4.622
- Drug alone dose giving Fa (calculated) ([7]; Fa 0.400): 0.0979951 µM
- Dose Reduction Index (DRI, from calculations) ([7]; Fa 0.450): 4.732
- Drug alone dose giving Fa (calculated) ([7]; Fa 0.450): 0.130469 µM
- Dose Reduction Index (DRI, from calculations) ([7]; Fa 0.500): 4.842
- Drug alone dose giving Fa (calculated) ([7]; Fa 0.500): 0.1727061 µM
- Dose Reduction Index (DRI) [7, 13]: 3.321
- Drug alone dose giving Fa [7, 13]: 0.1826374 µM
- Dose Reduction Index (DRI, from calculations) ([7]; Fa 0.550): 4.954
- Drug alone dose giving Fa (calculated) ([7]; Fa 0.550): 0.2286167 µM
- Dose Reduction Index (DRI, from calculations) ([7]; Fa 0.600): 5.072
- Drug alone dose giving Fa (calculated) ([7]; Fa 0.600): 0.3043766 µM
- Dose Reduction Index (DRI, from calculations) ([7]; Fa 0.650): 5.198
- Drug alone dose giving Fa (calculated) ([7]; Fa 0.650): 0.4102451 µM
- Dose Reduction Index (DRI, from calculations) ([7]; Fa 0.700): 5.336
- Drug alone dose giving Fa (calculated) ([7]; Fa 0.700): 0.564402 µM
- Dose Reduction Index (DRI) [7, 14]: 7.224
- Drug alone dose giving Fa [7, 14]: 0.8019141 µM
- Dose Reduction Index (DRI, from calculations) ([7]; Fa 0.750): 5.492
- Drug alone dose giving Fa (calculated) ([7]; Fa 0.750): 0.8019141 µM
- Dose Reduction Index (DRI, from calculations) ([7]; Fa 0.800): 5.676
- Drug alone dose giving Fa (calculated) ([7]; Fa 0.800): 1.1987842 µM
- Dose Reduction Index (DRI) [7, 15]: 7.135
- Drug alone dose giving Fa [7, 15]: 1.5839055 µM
- Dose Reduction Index (DRI, from calculations) ([7]; Fa 0.850): 5.907
- Drug alone dose giving Fa (calculated) ([7]; Fa 0.850): 1.9505238 µM
- Dose Reduction Index (DRI) [7, 16]: 8.386
- Drug alone dose giving Fa [7, 16]: 3.7234705 µM
- Dose Reduction Index (DRI) [7, 17]: 4.193
- Drug alone dose giving Fa [7, 17]: 3.7234705 µM
- Dose Reduction Index (DRI, from calculations) ([7]; Fa 0.900): 6.229
- Drug alone dose giving Fa (calculated) ([7]; Fa 0.900): 3.7234705 µM
- Dose Reduction Index (DRI, from calculations) ([7]; Fa 0.950): 6.786
- Drug alone dose giving Fa (calculated) ([7]; Fa 0.950): 10.58 µM
- Dose Reduction Index (DRI, from calculations) ([7]; Fa 0.990): 8.200
- Drug alone dose giving Fa (calculated) ([7]; Fa 0.990): 106.3 µM
- IC50 ([8]; 72 hours, read-out: IC50): 963 nM
- IC50 [8, 9]: 1500 nM

SMILES: CN(C)C(=O)c1cc2cnc(Nc3ccc(N4CCNCC4)cn3)nc2n1C1CCCC1 [Compound B, 7-cyclopentyl-N,N-dimethyl-2-((5-(piperazin-1-yl)pyridin-2-yl)amino)-7H-pyrrolo[2,3-d]pyrimidine-6-carboxamide]
- Cell viability (cell death) and apoptosis [1]: only slightly effective
- Survival of the mice / deaths [2]: one of the mice died on day 14
- Tumor volume / tumor growth [2]: slower tumor growth
- IC50 ([3]; 72 hours, read-out: IC50): 146 nM
- IC50 [3, 9]: 446 nM
- IC50 [4, 10]: 315 nM
- IC50 [4, 11]: 2650 nM
- IC50 [5]: 4720 nM
- IC50 ([6]; unit in cell): > 6000 nM
- IC50 ([7]; NB-1643, 72 h): 750 nM
- IC50 [7, 12]: 788 nM
- Drug alone dose giving Fa (calculated) ([7]; Fa 0.020): 0.0013507 µM
- Drug alone dose giving Fa (calculated) ([7]; Fa 0.050): 0.0063668 µM
- Drug alone dose giving Fa (calculated) ([7]; Fa 0.100): 0.021628 µM
- Drug alone dose giving Fa (calculated) ([7]; Fa 0.150): 0.0461139 µM
- Drug alone dose giving Fa (calculated) ([7]; Fa 0.200): 0.0815448 µM
- Drug alone dose giving Fa (calculated) ([7]; Fa 0.250): 0.1305781 µM
- Drug alone dose giving Fa (calculated) ([7]; Fa 0.300): 0.1970133 µM
- Drug alone dose giving Fa (calculated) ([7]; Fa 0.350): 0.2862422 µM
- Drug alone dose giving Fa (calculated) ([7]; Fa 0.400): 0.4060079 µM
- Drug alone dose giving Fa (calculated) ([7]; Fa 0.450): 0.5676688 µM
- Drug alone dose giving Fa (calculated) ([7]; Fa 0.500): 0.78836 µM
- Drug alone dose giving Fa [7, 13]: 0.8417031 µM
- Drug alone dose giving Fa (calculated) ([7]; Fa 0.550): 1.0948487 µM
- Drug alone dose giving Fa (calculated) ([7]; Fa 0.600): 1.5307866 µM
- Drug alone dose giving Fa (calculated) ([7]; Fa 0.650): 2.1712783 µM
- Drug alone dose giving Fa (calculated) ([7]; Fa 0.700): 3.1546674 µM
- Drug alone dose giving Fa [7, 14]: 4.7596923 µM
- Drug alone dose giving Fa (calculated) ([7]; Fa 0.750): 4.7596923 µM
- Drug alone dose giving Fa (calculated) ([7]; Fa 0.800): 7.6217203 µM
- Drug alone dose giving Fa [7, 15]: 10.56 µM
- Drug alone dose giving Fa (calculated) ([7]; Fa 0.850): 13.48 µM
- Drug alone dose giving Fa [7, 16]: 28.74 µM
- Drug alone dose giving Fa [7, 17]: 28.74 µM
- Drug alone dose giving Fa (calculated) ([7]; Fa 0.900): 28.74 µM
- Drug alone dose giving Fa (calculated) ([7]; Fa 0.950): 97.62 µM
- Drug alone dose giving Fa (calculated) ([7]; Fa 0.990): 1455 µM
- IC50 ([8]; 72 hours, read-out: IC50): 111 nM
- IC50 [8, 9]: 1500 nM
